Test results as given in patent publication US20230381201A1, “METHODS AND COMPOSITIONS FOR TREATING FIBROTIC DISEASES” (MAX BioPharma, Inc., priority 2020, published 2023).

Key:
TGFβ target genes = assay: Basal expression of TGFβ target genes by Q-RT-PCR in primary human liver stellate cells; assay type: cell-based; conditions: DMEM 1% FBS, 48 hours, normalized to GAPDH, FIG. 1, p<0.01 vs. control
Method: Primary human liver stellate cells were treated in DMEM containing 1% fetal bovine serum (FBS) for 24 hours. Next, they were treated with control vehicle or Oxy210. After 48 hours, RNA was extracted and analyzed by Q-RT-PCR for the expression of the genes as indicated and normalized to GAPDH expression.

profibrogenic genes = assay: Basal expression of profibrogenic genes by Q-RT-PCR in primary human pericytes; assay type: cell-based; conditions: DMEM 5% FBS, 72 hours, normalized to GAPDH, FIG. 2, p<0.01 vs. control
Method: Primary human pericytes were treated with control vehicle or Oxy210 for 72 hours in DMEM containing 5% FBS. RNA was extracted and analyzed by Q-RT-PCR for the expression of profibrotic genes and normalized to GAPDH expression.

[1] = tested on: Primary human renal proximal tubular epithelial cells; assay: TGFβ-induced epithelial mesenchymal transition (EMT) of renal tubular epithelial cells, Q-RT-PCR of EMT markers and Gli1; assay type: cell-based; conditions: TGFβ 10 ng/mL, 48 hours, FIG. 4, p<0.01 vs. TGFβ
Method: Primary human renal proximal tubular epithelial cells cultured in RPMI containing 1% FBS were treated with TGFβ (10 ng/mL) in the absence or presence of Oxy210 for 48 hours. RNA was extracted and analyzed by Q-RT-PCR for the expression of the EMT markers and Gli1 and normalized to GAPDH expression.

IMR-90 cells [2] = assay: IMR-90 lung fibroblast cell proliferation (cell count); assay type: cell-based; conditions: IMR-90 normal human lung fibroblast cells, DMEM 1% FBS, 5 days; FIG. 5, p<0.01 vs. control
Method: IMR-90 cells were treated with Oxy210 at the concentrations as indicated in DMEM containing 1% FBS for 5 days and then were trypsinized and counted.

LL97A cells [3] = assay: LL97A lung fibroblast cell proliferation (cell count); assay type: cell-based; conditions: LL97A human lung fibroblast cells from a subject with idiopathic pulmonary fibrosis, F12K 1% FBS, 5 days; FIG. 6
Method: LL97A cells were treated with Oxy210 at the concentrations as indicated in F12K containing 1% FBS for 5 days and then were trypsinized and counted.

IMR-90 cells [4] = assay: Basal profibrotic gene expression by Q-RT-PCR in IMR-90 cells; assay type: cell-based, human; conditions: F12K 1% FBS, 72 hours, FIG. 7
Method: IMR-90 cells were treated in F12K medium containing 1% FBS and Oxy210 at the indicated concentrations for 72 hours. RNA was then extracted and analyzed by Q-RT-PCR for the expression of the genes as indicated and normalized to GAPDH expression.

LL97A cells [5] = assay: TGFβ-induced COL1A1 and a-SMA expression by Q-RT-PCR in LL97A cells; assay type: cell-based, human; conditions: 48 hours, FIG. 8
Method: LL97A cells were pretreated in F12K medium containing 1% FBS for 24 hours and then the cells were treated with TGFβ in the absence or presence of Oxy210 at the indicated concentrations. After 48 hours, RNA was extracted and analyzed by Q-RT-PCR for the expression of the genes as indicated and normalized to GAPDH expression.

LL97A cells [6] = assay: Basal COL1A1 expression by Q-RT-PCR in LL97A cells; assay type: cell-based, human; conditions: F12K 1% FBS, 72 hours, FIG. 9, p<0.01 vs control
Method: LL97A cells were treated in F12K medium containing 1% FBS and Oxy210 at the indicated concentrations for 72 hours. RNA was then extracted and analyzed by Q-RT-PCR for the expression of the genes as indicated and normalized to GAPDH expression.

C57BL/6 mice = assay: Bleomycin-induced pulmonary fibrosis in mice, H&E staining of lung sections; assay type: in vivo; conditions: bleomycin once intratracheally, FIG. 10
Method: C57BL/6 mice were treated once intratracheally with bleomycin with or without pirfenidone or Oxy210.

C[C@]12CC[C@H]3[C@@H](CC=C4C[C@@H](O)CC[C@@]43C)[C@@H]1CC[C@@H]2[C@](C)(O)CCc1cccnc1 [Oxy210]
basal expression of TGFβ target genes (TGFβ target genes): inhibition of basal expression of TGFβ target genes | basal expression of profibrogenic genes (profibrogenic genes): inhibition of basal expression of profibrogenic genes | TGFβ-induced epithelial mesenchymal transition (EMT) [1]: inhibition of TGFβ-induced epithelial mesenchymal transition (EMT) | cell proliferation (IMR-90 cells [2]): inhibition of IMR-90 normal human lung fibroblast cell proliferation | cell proliferation (LL97A cells [3]): inhibition of proliferation of LL97A human lung fibroblast cells | basal profibrotic gene expression (IMR-90 cells [4]): inhibits basal profibrotic gene expression | TGFβ-induced COL1A1 expression (LL97A cells [5]): inhibits | TGFβ-induced a-SMA expression (LL97A cells [5]): inhibits | basal COL1A1 expression (LL97A cells [6]): inhibits basal COL1A1 expression | bleomycin-induced damages to the lung architecture (C57BL/6 mice): clear beneficial effect
